The text below walks through data of PMC7771846 (Biomolecules & Therapeutics, 2020).

pKd: −log10 of the molar value.

This test deals with Hsp90α (Homo sapiens, UniProt P07900). The test can be described thus: SPR. It is filed as binding.

Consider `CN1C(=O)[C@@]23C[C@]4([C@]56C[C@@]78SS[C@@](CO)(C(=O)N7[C@H]5Nc5ccccc56)N(C)C8=O)c5ccccc5N[C@@H]4N2C(=O)[C@]1(CO)SS3` [Chaetocin], for which the negative-log Kd (pKd) (in general, the Kd on a negative log10 scale, so that one unit is a factor of ten) is 5.55.
